These are literature values, as cited in patent US10220158B2 (kaleo, Inc., priority 2014, dated 2019).

For the series the following is noted: jet injector vs conventional syringe.

In the case of `Cc1ncc2n1-c1ccc(Cl)cc1C(c1ccccc1F)=NC2` [midazolam], the “peak midazolam plasma concentrations produced faster” value is “over 30%”.
